The values that follow come from ChEMBL document CHEMBL1143416, “In vitro susceptibility to posaconazole of 1,903 yeast isolates recovered in France from 2003 to 2006 and tested by the method of the European committee on antimicrobial susceptibility testing” (2007).

The structures appear in SMILES notation. Values after ≈ are worked out from the molar mass of the structure shown.

Assay type in all cases: functional
For one test, the system named is Yarrowia lipolytica. Kind of test: Antimicrobial activity against Candida lipolytica isolate.
Another test concerns Saccharomyces cerevisiae. Kind of test: Antimicrobial activity against Saccharomyces cerevisiae isolate.
A further test deals with Trichosporon asahii. Kind of test: Antimicrobial activity against Trichosporon asahii isolate.
Another test relates to [Candida] haemuloni. Kind of test: Antimicrobial activity against Candida haemulonii isolate. Conditions: Candidozyma haemuli.
The next test concerns Kodamaea ohmeri. Description: Antimicrobial activity against Pichia ohmeri isolate.
The subject of another test is Magnusiomyces capitatus. Description: Antimicrobial activity against Geotrichum capitatum isolate.
The test system of a further test is Candida africana. Kind of test: Antimicrobial activity against Candida africana isolate.
For the next test, the system named is Diutina rugosa. Description: Antimicrobial activity against Candida rugosa isolate.
The test system of the next test is Trichosporon inkin. Kind of test: Antimicrobial activity against Trichosporon inkin isolate.
A further test has as its system Debaryomyces hansenii. Description: Antimicrobial activity against Candida famata isolate.
In another test the test system is Wickerhamomyces anomalus. Kind of test: Antimicrobial activity against Candida pelliculosa isolate. Particulars: Hansenula anomala.
Another test has as its system [Candida] palmioleophila. Kind of test: Antimicrobial activity against Candida palmioleophila isolate. Particulars: Suzukiozyma palmioleophila.
Another test deals with Meyerozyma caribbica. Description: Antimicrobial activity against Candida fermentati isolate.
The next test has as its system Trichosporon. Description: Antimicrobial activity against Trichosporon isolate.
A further test relates to Apiotrichum loubieri. Kind of test: Antimicrobial activity against Trichosporon loubieri isolate.
Test [1] concerns Cutaneotrichosporon mucoides. Kind of test: Antimicrobial activity against Trichosporon mucoides isolate.
In the next test the test system is [Candida] inconspicua. Kind of test: Antimicrobial activity against Candida inconspicua isolate. Conditions: Pichia inconspicua.
The test system of another test is Rhodotorula mucilaginosa. Kind of test: Antimicrobial activity against Rhodotorula mucilaginosa isolate.
A further test concerns Cyberlindnera jadinii. Description: Antimicrobial activity against Candida utilis isolate. Particulars: Williopsis jadinii.

As to `OC(Cn1cncn1)(Cn1cncn1)c1ccc(F)cc1F` [FLUCONAZOLE], the MIC50 (as a rule, an inhibitory concentration at the 50% level, which refers to growth in some studies and to a panel of isolates in others) came out at 2 µg/mL (≈ 6.53 µM) in the test on Yarrowia lipolytica; 0.25 µg/mL (≈ 0.816 µM) against Saccharomyces cerevisiae; 2 µg/mL (≈ 6.53 µM) against Trichosporon asahii; 32 µg/mL (≈ 104 µM) in test [Candida] haemuloni; 8 µg/mL (≈ 26.1 µM) in the test with Kodamaea ohmeri; 4 µg/mL (≈ 13.1 µM) against Magnusiomyces capitatus. Also, the MIC50 stood at 0.25 µg/mL (≈ 0.816 µM) against Candida africana; 1 µg/mL (≈ 3.27 µM) with Diutina rugosa; 0.5 µg/mL (≈ 1.63 µM) against Trichosporon inkin; 0.125 µg/mL (≈ 0.408 µM) in the test on Debaryomyces hansenii; 2 µg/mL (≈ 6.53 µM) against Wickerhamomyces anomalus; 8 µg/mL (≈ 26.1 µM) in test [Candida] palmioleophila. Also, the MIC50 against Meyerozyma caribbica is 8 µg/mL (≈ 26.1 µM); in the test on Trichosporon, 2 µg/mL (≈ 6.53 µM); against Apiotrichum loubieri it was 2 µg/mL (≈ 6.53 µM); in test [1] it was 2 µg/mL (≈ 6.53 µM); in test [Candida] inconspicua, 16 µg/mL (≈ 52.2 µM); against Rhodotorula mucilaginosa it was at least 64 µg/mL. This compound returned an MIC50 against Cyberlindnera jadinii of 1 µg/mL (≈ 3.27 µM). The MIC90 (in test [Candida] haemuloni; with Meyerozyma caribbica) was at least 64 µg/mL throughout.
